The subject of this assay is linearized pUC19 DNA. Nature of the assay: DNA cross-linking assay with linearized pUC19 DNA, denaturing agarose gel electrophoresis. Format: biochemical. The conditions noted are these: for DNA interstrand cross-link (ICL) formation: linearized pUC19 DNA. The method, then: FIGS. 6A-6C depict the DNA crosslinking ability of several compounds according to some embodiments. The DNA cross-linking assays employ linear pUC19 DNA. DMSO was used as vehicle (negative control), and 100 μM cisplatin was used as positive controls. The DNA was analyzed by 0.4% NaOH denaturing and agarose gel electrophoresis (90 V, 1.5 h). FIG. 6A depicts the DNA cross-linking comparison of colibactin 770 (3a), stable colibactin 742 (4), and its linear precursor 9 at pH 5.0. FIG. 6B depicts the comparison of the relative DNA cross-linking abilities of colibactin 742 (4) and its linear precursor 9 at pH 5.0. FIG. 6C depicts the comparison of the relative DNA cross-linking abilities of colibactin 742 (4) and its linear precursor 9 at pH 7.0.
FIG. 10 depicts the DNA cross-linking assay employing linear pUC19 DNA and synthetic colibactin (3), 9, and colibactin 742 (4) according to some embodiments. Specifically, 5% DMSO was used as vehicle (negative control), and 100 μM cisplatin was used as positive control. DNA ladder (Lane #1); 5% DMSO (Lane #2); 100 μM cisplatin (Lane #3); 200 μM colibactin (3) (Lane #4); 100 μM colibactin (3) (Lane #5); 10 μM colibactin (3) (Lane #6); 1 μM colibactin (3) (Lane #7); 200 μM 9 (Lane #8); 100 μM 9 (Lane #9); 10 μM 9 (Lane #10); 1 μM 9 (Lane #11); 200 μM colibactin 742 (4) (Lane #12); 100 μM colibactin 742 (4) (Lane #13); 10 μM colibactin 742 (4) (Lane #14); 1 μM colibactin 742 (4) (Lane #15). Conditions (Lane #3): linearized pUC19 DNA (15.4 μM in base pairs), 5% DMSO (vehicle), 100 μM cisplatin, 10 mM citric buffer, pH 5.0, 4 h, 37° C. Conditions (Lanes #4-#7): linearized pUC19 DNA (15.4 μM in base pairs), colibactin (3) (200 μM-1 μM), 5% DMSO, 10 mM citric buffer, pH 5.0, 4 h, 37° C. Conditions (Lanes #8-#11): linearized pUC19 DNA (15.4 μM in base pairs), 9 (200 μM-1 μM), 5% DMSO, 10 mM citric buffer, pH 5.0, 4 h, 37° C. Conditions (Lanes #12-#15): linearized pUC19 DNA (15.4 μM in base pairs), colibactin 742 (4) (200 μM-1 μM), 5% DMSO, 10 mM citric buffer, pH 5.0, 4 h, 37° C. The DNA was analyzed by native, 0.2% NaOH, 0.4% NaOH, and 1% NaOH denaturing agarose gel electrophoresis (90 V, 1.5 h). Linear=linearized DNA in native form, linear-denat.=linearized DNA in denaturing form, linear-XL=linerized DNA cross-linked by colibactins or cisplatin.
FIG. 11 depicts the DNA cross-linking assay employing linear pUC19 DNA and synthetic colibactin fragments 23, 24, and 22. Specifically, 5% DMSO was used as vehicle (negative control), and 100 μM cisplatin was used as positive control. DNA ladder (Lane #1); 5% DMSO (Lane #2); 100 μM cisplatin (Lane #3); 500 μM 23 (Lane #4); 100 μM 23 (Lane #5); 10 μM 23 (Lane #6); 1 μM 23 (Lane #7); 100 nm 23 (Lane #8); 500 μM 24 (Lane #9); 100 μM 24 (Lane #10); 10 μM 24 (Lane #11); 1 μM 24 (Lane #12); 100 nm 24 (Lane #13); 500 μM 22 (Lane #14); 100 μM 22 (Lane #15); 10 μM 22 (Lane #16); 1 μM 22 (Lane #17); 100 nm 22 (Lane #18). Conditions (Lane #2): linearized pUC19 DNA (15.4 μM in base pairs), 5% DMSO (vehicle), 10 mM citric buffer, pH 5.0, 4 h, 37° C. Conditions (Lane #3): linearized pUC19 DNA (15.4 μM in base pairs), 5% DMSO (vehicle), 100 μM cisplatin, 10 mM citric buffer, pH 5.0, 4 h, 37° C. Conditions (Lanes #4-#8): linearized pUC19 DNA (15.4 μM in base pairs), 23 (500 μM-100 nM), 5% DMSO, 10 mM citric buffer, pH 5.0, 4 h, 37° C. Conditions (Lanes #9-#13): linearized pUC19 DNA (15.4 μM in base pairs), 24 (500 μM-1 μM), 5% DMSO, 10 mM citric buffer, pH 5.0, 4 h, 37° C. Conditions (Lanes #14-#18): linearized pUC19 DNA (15.4 μM in base pairs), 22 (500 μM-100 nM), 5% DMSO, 10 mM citric buffer, pH 5.0, 4 h, 37° C. The DNA was analyzed by native, 0.2% NaOH, 0.4% NaOH, and 1% NaOH denaturing agarose gel electrophoresis (90 V, 1.5 h). Linear=linearized DNA in native form, linear-denat.=linearized DNA in denaturing form, linear-XL=DSB/linerized DNA cross-linked by colibactins or cisplatin. […]

In the case of `CCOC(=O)c1nc(C2(O)CNC(=O)C2C2=C(C3=N[C@@H](C)CC3)C(=O)NC23CC3)cs1` (some centres unmarked) [compound 24], where the note is “pH 5.0, 4 h, 37° C.”, the “DNA interstrand cross-link (ICL) formation” value (from here on “DNA interstrand cross-link”) is reported as “failed to form DNA ICLs”.

For `C[C@H]1CCC(CC(=O)NC2(C(=O)CC(=O)NCC(=O)c3csc(CCc4csc(CNC(=O)CC(=O)C5(NC(=O)CC6=N[C@@H](C)CC6)CC5)n4)n3)CC2)=N1` [compound 9], the “DNA interstrand cross-link” value is listed as “induced stable DNA ICLs” (pH 5.0, 4 h, 37° C.) and “induced stable ICLs” (pH 7.0, 1 nM-100 μM). For the same compound, under “pH 5.0”, the “concentration inducing stable DNA ICLs relative to 3a” value is recorded as “ten-fold lower”. In addition, the “stability of the ICLs under increasingly stringent denaturing conditions” value (pH 5.0, native, 0.2%, 0.4%, 1% NaOH gels) is on record as “comparable to those derived from 3a”.

With `C[C@H]1CCC(C2=C(CC(=O)NCC(=O)c3csc(CCc4csc(CNC(=O)CC5=C(C6=N[C@@H](C)CC6)C(=O)NC5(C)C)n4)n3)C(C)(C)NC2=O)=N1` [compound 22], the DNA alkylation entry was “lack of DNA alkylation”. Besides, the “DNA interstrand cross-link” value (pH 5.0, 4 h, 37° C.) is “failed to form DNA ICLs”.

`CCOC(=O)c1csc(CNC(=O)CC2=C(C3=N[C@@H](C)CC3)C(=O)NC23CC3)n1` [compound 23, reference compound]: the “DNA interstrand cross-link” value (pH 5.0, 4 h, 37° C.) is on record as “failed to form DNA ICLs”.

The record behind these values is US20250026747A1, “COLIBACTIN DERIVATIVES AND METHODS OF TREATING, AMELIORATING, AND/OR PREVENTING CANCER” (priority 2021, published 2025).
